Test results from article PMC4335513 (Critical Care, 2015).
Converted amounts (≈) assume the structure as drawn. Read-outs that look alike come from different tables or passages of the source. *1 amine or outer side, *2 acyl side, *3 side chain or, on linkers, in order; H or OH if unused. Where a SMILES comes first, the peptide text is derived from it. Bridges are numbered along the chain shown (N, C = ends). [ ]: non-standard residue; d: D form. The star is where a group is joined. pTerphenylCO(4''-OnC5H11) = CCCCCOc1ccc(-c2ccc(-c3ccc(C(=O)*)cc3)cc2)cc1; Orn(4R-OH,5R-OH) = O=C([C@H](C[C@@H](O)[C@@H](O)N[*:3])N[*:1])[*:2]; hTyr(3S-OH,4S-OH) = N[C@H](C(=O)O)[C@H](O)[C@@H](O)c1ccc(O)cc1; Pro(3S-OH,4S-Me) = C[C@H]1CN[C@H](C(=O)O)[C@H]1O; Hyp = O=C(O)[C@@H]1C[C@@H](O)CN1

Tests used:
[1] = Plasma pharmacokinetics in critically ill ICU patients (DALI study), noncompartmental analysis; assay type: in vivo, human
Description: The Defining Antibiotic Levels in Intensive care unit patients (DALI) study was a prospective, multicenter PK point-prevalence study. The protocol has been published in detail previously, and the participating investigators are listed in Additional file 1).
The choice of antifungal agent and dosing was at the discretion of the treating clinician. Each patient had three blood samples taken: blood sample A was a peak concentration taken 30 minutes after completion of intravenous infusion; blood sample B was a mid-dose blood sample taken 50% of the way through a dosing interval; and blood sample C was a pre-dose concentration taken at the end of a dosing interval (within 30 minutes of the next dose).
The stationary phase was a Kinetex C8 (50 × 2.10 mm, 1.7 μm) UHPLC column (Phenomenex, Torrance, CA, USA).
For anidulafungin analysis, the supernatant was washed with dichloromethane to remove lipid-soluble components. […] The methods were validated for linearity, LLOQ, matrix effects, precision and accuracy, and stock stability by using the FDA criteria for bioanalysis.
Clearance (CL) was calculated by using the equation Dose/AUC0-∞.

[2] = design: AUC 0–24: unit not given beside the values; conditions: general patients; mean (%CV); ref Wurthwein et al. [26]; cited from earlier work
Source text: Table 2 Comparison of exposures achieved in this study with other studies (mean (%CV)) | column: Caspofungin / Wurthwein et al. (general patients)

[3] = Clinical outcome of therapy and mortality at 30 days in ICU patients; assay type: in vivo, human; conditions: for patients with positive clinical outcome: completion of treatment course without change or addition of antifungal therapy; for 30-day mortality: died by day 30; for patients with indeterminate clinical outcome: outcome of therapy could not be judged
Description: (§1) Data collection was performed by trained staff at each participating center and entered into a case report form. Various demographic and clinical data were collected, including age, gender, height, weight, admission diagnosis, presence of extracorporeal circuits (for example, renal replacement therapy), clinical outcome of infection, and mortality at 30 days. A positive clinical outcome of therapy was defined as completion of treatment course without change or addition of antifungal therapy and with no additional antifungals commenced within 48 hours of discontinuation of the therapy, and if the outcome of therapy could not be judged for any reason, it was recorded as indeterminate. Also, organ-function data (including renal function: serum creatinine concentration during studied dosing interval; 24-hour measured urinary creatinine clearance (CrCL) (where available), antibiotic dosing (dose and frequency, time of dosing and sampling, day of antibiotic therapy), and infection data (including known or presumed pathogen and pathogen MIC) were collected.

[4] = surgical ICU patients; ref Nguyen et al. [28]; cited from earlier work
Source text: However, variability was higher compared with healthy volunteers (Table 2). This may be attributed to underlying pathophysiological changes that occur in ICU patients. The observed anidulafungin variability in AUC0–24, Cmin, and Cmax was not as high as observed in the study by Liu et al., who recruited a larger cohort of surgical ICU patients but was higher than variability observed in healthy volunteers (Table 2). The PK parameter estimates were ...

[5] = design: AUC 0–24: unit not given beside the values; conditions: healthy volunteers; mean (95% CI); ref Stone et al. [27]; cited from earlier work
Source text: Table 2 Comparison of exposures achieved in this study with other studies (mean (%CV)) | column: Caspofungin / Stone et al. [27]^a (healthy volunteers)

C. albicans = assay: Pathogen MIC reported for patient isolate; assay type: cell-based; conditions: Candida albicans
Description: as §1

[6] = human, in vivo; cited from earlier work
[7] = design: AUC 0–24: unit not given beside the values; conditions: ICU patients; mean (%CV); ref Liu et al. [25]; cited from earlier work
Source text: Table 2 Comparison of exposures achieved in this study with other studies (mean (%CV)) | column: Anidulafungin / Liu et al. (ICU patients)

[8] = design: AUC 0–24: unit not given beside the values; conditions: healthy volunteers; mean (%CV); ref Liu et al. [25]; cited from earlier work
Source text: Table 2 Comparison of exposures achieved in this study with other studies (mean (%CV)) | column: Anidulafungin / Liu et al. (healthy volunteers)

With `CC[C@H](C)C[C@H](C)CCCCCCCCC(=O)N[C@H]1C[C@@H](O)[C@@H](NCCN)NC(=O)[C@@H]2[C@@H](O)CCN2C(=O)[C@H]([C@H](O)CCN)NC(=O)[C@H]([C@H](O)[C@@H](O)c2ccc(O)cc2)NC(=O)[C@@H]2C[C@@H](O)CN2C(=O)[C@H]([C@@H](C)O)NC1=O` [Caspofungin, caspofungin] the “AUC 0–24” value ([1]; This study, ICU patients, caspofungin 70 mg (loading dose), 70% sampled on day 1, plasma, UHPLC-MS/MS, mean (%CV)) was 52.0 (53), the C max ([1]; This study, ICU patients, caspofungin 70 mg (loading dose), plasma, observed peak, mean (%CV)) was 3.9 (55) and the C min ([1]; This study, ICU patients, caspofungin 70 mg (loading dose), plasma, observed pre-dose, mean (%CV)) was 1.5 (57). The “AUC 0–24” value [2] was 170.0 (34), the C max [2] was 13.8 (31) and the “patients with positive clinical outcome” value [3] was 43%. For the same molecule, the 30-day mortality [3] was 29%, the “patients with indeterminate clinical outcome” value [3] was 11% and the “Cmin (range observed)” value [4] was 500 to 4100 ng/mL. For the same molecule, the “AUC 0–24” value [5] was 97.0 (87–109), the C max [5] was 12.1 (11–13) and the C min [5] was 1.4 (1.1–1.8).

In the case of `OC(Cn1cncn1)(Cn1cncn1)c1ccc(F)cc1F` [Fluconazole, fluconazole], the MIC (C. albicans) is reported as 0.75 µg/mL (≈ 2.45 µM), the C max ([1]; human, in vivo) is reported as 20 (14) and the “AUC 0–24” value ([1]; human, in vivo, SD) is reported as 359 (259). The “patients with positive clinical outcome” value [3] was 27%, the 30-day mortality [3] was 47% and the “patients with indeterminate clinical outcome” value [3] was 40%. For the same molecule, the “AUC 0–24” value [6] was 409 (336–482) and the C max [6] was 25 (22–28).

In the case of `CCCCCOc1ccc(-c2ccc(-c3ccc(C(=O)N[C@H]4C[C@@H](O)[C@@H](O)NC(=O)[C@@H]5[C@@H](O)[C@@H](C)CN5C(=O)[C@H]([C@@H](C)O)NC(=O)[C@H]([C@H](O)[C@@H](O)c5ccc(O)cc5)NC(=O)[C@@H]5C[C@@H](O)CN5C(=O)[C@H]([C@@H](C)O)NC4=O)cc3)cc2)cc1` [Anidulafungin, anidulafungin] ({pTerphenylCO(4''-OnC5H11)}-[Orn(4R-OH,5R-OH)]T[Hyp][hTyr(3S-OH,4S-OH)]T[Pro(3S-OH,4S-Me)]; lactam 1-C), the “AUC 0–24” value [7] is listed as 93.0 (41), the C max [7] is listed as 7.7 (56) and the C min [7] is listed as 3.0 (44). For the same molecule, the “AUC 0–24” value ([1]; This study, ICU patients, anidulafungin 100 mg, plasma, UHPLC-MS/MS, linear trapezoidal, mean (%CV), n = 9) was 55 (28), the C max ([1]; This study, ICU patients, anidulafungin 100 mg, plasma, observed peak 30 min after end of iv infusion, mean (%CV), n = 9) was 3.9 (29) and the C min ([1]; This study, ICU patients, anidulafungin 100 mg, plasma, observed pre-dose concentration, mean (%CV), n = 9) was 1.8 (30). The “patients with positive clinical outcome” value [3] was 67%, the 30-day mortality [3] was 11% and the “patients with indeterminate clinical outcome” value [3] was 33%. For the same molecule, the “AUC 0–24” value [8] was 105.0 (22), the C max [8] was 7.0 (22) and the C min [8] was 3.1 (25).
